Experimental data: article PMC5995273, “Identification and Characterization of Genes Involved in Benzylisoquinoline Alkaloid Biosynthesis in Coptis Species” (Frontiers in Plant Science, 2018)

Molecular target: T1, Ct7OMT (Coptis teeta, UniProt A0A2Z5FRT2)
T1 construct: gene 7OMT
Test: UPLC-QTOF-MS/MS product detection
Format: biochemical
Conditions: SAM 0.1 mM, substrate 100 uM, pH 8.0, 30 C, 1 h

T1 sequence (A0A2Z5FRT2 entry or part of it): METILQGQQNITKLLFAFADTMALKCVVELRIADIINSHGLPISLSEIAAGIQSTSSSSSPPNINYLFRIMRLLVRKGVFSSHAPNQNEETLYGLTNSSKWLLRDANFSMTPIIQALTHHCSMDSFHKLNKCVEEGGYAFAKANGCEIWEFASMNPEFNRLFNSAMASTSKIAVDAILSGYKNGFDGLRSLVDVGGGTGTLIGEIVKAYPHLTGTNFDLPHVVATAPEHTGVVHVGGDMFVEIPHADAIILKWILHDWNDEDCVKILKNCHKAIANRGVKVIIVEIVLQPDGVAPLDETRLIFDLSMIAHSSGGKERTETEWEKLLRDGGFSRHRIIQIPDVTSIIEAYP

Compound: Oc1ccc(C[C@@H]2NCCc3cc(O)c(O)cc32)cc1 [compound 1, (S)-norcoclaurine]
- UPLC-QTOF-MS/MS product detection: Ct7OMT also O-methylates (S)-norcoclaurine at C6, yielding (S)-coclaurine
